{
  "source": "patent US20140234397A1",
  "about": "(priority 2013, published 2014)",
  "origin": "cited, not measured here",
  "key": {"[1]": {"conditions": "rat; for removal of toxin: radio-tagged metal (CO60) removed from the liver"}, "[2]": {"conditions": "humans"}},
  "note": "Where two headings read alike, the source gives them in different places.",
  "data": [
    {"smiles": "N[C@@H](CCC(=O)N[C@@H](CS)C(=O)NCC(=O)O)C(=O)O", "note": "[Plain glutathione, glutathione]", "values": [
      {"measurement": "toxin remaining", "setting": "[1]; radio-tagged metal (CO60) in the liver", "value": 100, "unit": "%"},
      {"measurement": "removal of toxin", "setting": "[1]", "value": 0, "unit": "%"},
      {"measurement": "removal of toxin", "setting": "[1]; listed as Intravenous glutathione", "value": 64, "unit": "%"},
      {"measurement": "absorption after oral ingestion", "setting": "[2]", "value": "not absorbed"}
    ]}
  ]
}
